# Where two headings read alike, the source gives them in different places.
# What was measured:
# [1] = tested on: IL-17 production by CD4 T cells; experiment: Human Th17 assay; format: cell-based
# full-length human RORγt = full-length human RORγt (Homo sapiens (Human), UniProt P51449); experiment: RORγt (full-length human) reporter assay, Conditions B or C; format: cell-based; conditions: for IC50: read-out: RORγt (FL) Reporter Assay B or C, IC50; for inhibition at 6 µM: read-out: RORγt (FL) Reporter Assay B or C, % inhibition @ 6 μM, Conditions B or C; for RORγt (FL) Reporter Assay B or C, % inhibition (value marked *): marked *: footnote not given
# Sequence of full-length human RORγt (P51449 other isoform, or with tags, fused parts or gaps): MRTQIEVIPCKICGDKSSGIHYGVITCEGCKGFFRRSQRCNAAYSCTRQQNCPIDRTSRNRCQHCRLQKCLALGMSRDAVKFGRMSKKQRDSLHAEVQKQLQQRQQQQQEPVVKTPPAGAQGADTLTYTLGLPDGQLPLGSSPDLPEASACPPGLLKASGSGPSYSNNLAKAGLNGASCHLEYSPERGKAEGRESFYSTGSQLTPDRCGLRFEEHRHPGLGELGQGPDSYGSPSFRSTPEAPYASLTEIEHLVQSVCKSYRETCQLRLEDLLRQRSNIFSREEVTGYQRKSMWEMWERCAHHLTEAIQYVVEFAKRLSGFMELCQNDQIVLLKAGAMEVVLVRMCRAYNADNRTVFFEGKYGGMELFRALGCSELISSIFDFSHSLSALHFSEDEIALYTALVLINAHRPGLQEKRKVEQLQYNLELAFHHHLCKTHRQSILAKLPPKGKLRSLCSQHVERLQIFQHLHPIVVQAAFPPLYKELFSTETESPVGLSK
# Summary of the method: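 Readout is dual luciferase: firefly (GAL4-driven) normalized to DMSO-only and saturating-reference controls, then to CMV-Renilla. Full-length human RORγt fused to GAL4-DBD was transiently expressed in HEK293T; compound exposure ran overnight (16-20 h) starting 4-6 h after transfection, final FBS 1.3%, DMSO 0.1%.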
# [2] = read-out: Human Th17 Assay, IC50
# [3] = read-out: Human Th17 Assay, IC50 (μM)
Structure (SMILES),"IC50 [1, 2] [µM]",IC50 (full-length human RORγt; Conditions B or C) [nM],inhibition at 6 µM (full-length human RORγt) [%],"RORγt (FL) Reporter Assay B or C, % inhibition (value marked *) (full-length human RORγt; Conditions B or C)","IC50 [1, 3] [µM]","inhibition at 3 µM (full-length human RORγt; at 3 μM compound concentration, read-out: RORγt (FL) Reporter Assay B or C, % inhibition) [%]",IC50 (full-length human RORγt) [nM]
"C[C@H](Nc1cc(C(F)F)c(-c2sc(C(=O)NCC(C)(C)O)nc2C(=O)N2CCCC[C@@H]2C)cn1)C1CC1 [Example 37, 5-(6-(((S)-1-Cyclopropylethyl)amino)-4-(difluoromethyl)pyridin-3-yl)-N-(2-hydroxy-2-methylpropyl)-4-((S)-2-methylpiperidine-1-carbonyl)thiazole-2-carboxamide]",0.052,14,92.2,,,,
"C[C@H]1CC(F)(F)CN1C(=O)c1nc(C(=O)NCC(C)(C)O)sc1-c1cnc(NC2(C)CCC2)cc1C(F)(F)F [Example 141, (S)-4-(4,4-Difluoro-2-methylpyrrolidine-1-carbonyl)-N-(2-hydroxy-2-methylpropyl)-5-(6-((1-methylcyclobutyl)amino)-4-(trifluoromethyl)pyridin-3-yl)thiazole-2-carboxamide]",0.0055,23,,100* %,,,
"C[C@H](Nc1cc(C(F)(F)F)c(-c2sc(C(=O)NCC(C)(C)O)nc2C(=O)N2CCC[C@@H]2C)cn1)C(F)(F)F [Example 78, N-(2-Hydroxy-2-methylpropyl)-4-((S)-2-methylpyrrolidine-1-carbonyl)-5-(4-(trifluoromethyl)-6-(((S)-1,1,1-trifluoropropan-2-yl)amino)pyridin-3-yl)thiazole-2-carboxamide]",0.014,49,,110* %,,,
"CC(C)(O)CNC(=O)c1nc(C(=O)N2C3CCC2CC3)c(-c2cnc(NCC(C)(C)C(F)(F)F)cc2C(F)(F)F)s1 [Example 122, 4-((1s,4s)-7-Azabicyclo[2.2.1]heptane-7-carbonyl)-N-(2-hydroxy-2-methylpropyl)-5-(6-((3,3,3-trifluoro-2,2-dimethylpropyl)amino)-4-(trifluoromethyl)pyridin-3-yl)thiazole-2-carboxamide]",,33,,102* %,0.02,,
"C[C@H]1CCCCN1C(=O)c1nc(C(=O)NCC(C)(C)O)sc1-c1cnc(NC2CCCC2)cc1C(F)(F)F [Example 27, (S)-5-(6-(Cyclopentylamino)-4-(trifluoromethyl)pyridin-3-yl)-N-(2-hydroxy-2-methylpropyl)-4-(2-methylpiperidine-1-carbonyl)thiazole-2-carboxamide]",0.016,8.4,106,,,,
"CC[C@H](Nc1cc(C(F)F)c(-c2sc(C(=O)NCC(C)(C)O)nc2C(=O)N2CC(F)(F)C[C@@H]2C)cn1)C(F)(F)F [Example 90, 4-((S)-4,4-Difluoro-2-methylpyrrolidine-1-carbonyl)-5-(4-(difluoromethyl)-6-(((S)-1,1,1-trifluorobutan-2-yl)amino)pyridin-3-yl)-N-(2-hydroxy-2-methylpropyl)thiazole-2-carboxamide]",0.076,110,,86* %,,,
"CC[C@H](Nc1cc(C(F)(F)F)c(-c2sc(C(=O)NCC(C)(C)O)nc2C(=O)N2CCC[C@@H]2C)cn1)C(F)(F)F [Example 111, N-(2-Hydroxy-2-methylpropyl)-4-((S)-2-methylpyrrolidine-1-carbonyl)-5-(6-(((S)-1,1,1-trifluorobutan-2-yl)amino)-4-(trifluoromethyl)pyridin-3-yl)thiazole-2-carboxamide]",0.017,29,,106* %,,,
"CC(C)(O)CNC(=O)c1nc(C(=O)N2C3CCC2CC3)c(-c2cnc(NC3(C)CCC3)cc2C(F)(F)F)s1 [Example 140, 4-((1s,4s)-7-Azabicyclo[2.2.1]heptane-7-carbonyl)-N-(2-hydroxy-2-methylpropyl)-5-(6-((1-methylcyclobutyl)amino)-4-(trifluoromethyl)pyridin-3-yl)thiazole-2-carboxamide]",,11,,89* %,0.011,,
"C[C@H](Nc1cc(C(F)(F)F)c(-c2sc(C(=O)NCC(C)(C)O)nc2C(=O)N2CCCC[C@@H]2C)cn1)C(F)(F)F [Example 47, N-(2-Hydroxy-2-methylpropyl)-4-((S)-2-methylpiperidine-1-carbonyl)-5-(4-(trifluoromethyl)-6-(((S)-1,1,1-trifluoropropan-2-yl)amino)pyridin-3-yl)thiazole-2-carboxamide]",0.0098,5.4,,96* %,,,
"C[C@H]1CCCCN1C(=O)c1nc(C(=O)NCC(C)(C)O)sc1-c1cnc(NC2CCCC2)cc1C(F)F [Example 41, (S)-5-(6-(Cyclopentylamino)-4-(difluoromethyl)pyridin-3-yl)-N-(2-hydroxy-2-methylpropyl)-4-(2-methylpiperidine-1-carbonyl)thiazole-2-carboxamide]",0.043,7.6,103,,,,
"O=C(N[C@H]1C[C@H](O)C1)c1nc(C(=O)N2C3CCC2CC3)c(-c2cnc(N[C@@H](C3CC3)C(F)(F)F)cc2C(F)F)s1 [Example 318, 4-((1s,4s)-7-Azabicyclo[2.2.1]heptane-7-carbonyl)-5-(6-(((S)-1-cyclopropyl-2,2,2-trifluoroethyl)amino)-4-(difluoromethyl)pyridin-3-yl)-N-((1r,3S)-3-hydroxycyclobutyl)thiazole-2-carboxamide]",0.017,,,,,86,28
C[C@H](Nc1cc(C(F)F)c(-c2sc(C(=O)NCC(C)(C)O)nc2C(=O)N2CC(F)(F)C[C@@H]2C)cn1)C(F)(F)F [Example 135],0.044,39,,100* %,,,

# — US10975068B2, “6-aminopyridin-3-yl thiazoles as modulators of RORγT” (Janssen Pharmaceutica NV, priority 2016, dated 2021)
